Results: the supplement of paper PMC11451515

Tests used:
Assay in all cases: AUC of viability dose-response curve (% viability x log10 dose units); higher = less sensitive
Conditions in all cases: 48 h
NOMO1 = system: NOMO1
In short: (§1)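 Over 48 h at 37°C, leukemia cells in 1536-well plates (500 or 1000 cells/well), adapted to each medium, received library compounds in DMSO at 11 threefold doses from 47 μM to 0.79 nM. CellTiter-Glo One luminescence, normalised per plate to DMSO and cell-free wells, was fitted by a four-parameter log-logistic function of log10 dose. The area under the curve was then integrated by trapezoidal rule, after scaling curves above full viability and removing those that failed quality control.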

P12-Ichikawa = system: P12-Ichikawa
In short: as §1

SEM cells = system: SEM cells
In short: as §1

[1] = RPMI 5 mM glucose + 10% dialyzed FBS

Compound | AUC of viability dose-response curve (NOMO1; HPLM + 10% dialyzed FBS) | AUC of viability dose-response curve (NOMO1; RPMI 5 mM glucose + 10% FBS) | AUC of viability dose-response curve (NOMO1; [1]) | AUC of viability dose-response curve (P12-Ichikawa; HPLM + 10% dialyzed FBS) | AUC of viability dose-response curve (P12-Ichikawa; RPMI 5 mM glucose + 10% FBS) | AUC of viability dose-response curve (P12-Ichikawa; [1]) | AUC of viability dose-response curve (SEM cells; HPLM + 10% dialyzed FBS) | AUC of viability dose-response curve (SEM cells; RPMI 5 mM glucose + 10% FBS) | AUC of viability dose-response curve (SEM cells; [1])
Cc1c(CN2CCN(C(=O)[C@H](C)O)CC2)sc2c(N3CCOCC3)nc(-c3cnc(N)nc3)nc12 | 318 | 352 | 308 | 401 | 338 | 345 | 285 | 304 | 284
O=NN(CCCl)C(=O)NC1CCCCC1 | 474 | 472 | 475 | 468 | 453 | 462 | 445 | 475 | 433
N=C(CCSCc1csc(N=C(N)N)n1)N[S+](N)(=O)[O-] | 459 | 439 | 461 | 467 | 454 | 432 | 452 | 458 | 421
CN(C)CCOc1cc(-c2cn[nH]c2)ccc1NC(=O)C1COc2ccccc2O1 (configuration not stated) | 460 | 442 | 447 | 449 | 455 | 459 | 439 | 453 | 453
COc1cccc2cc(-c3nc(C4CCC(C(=O)O)CC4)n4ncnc(N)c34)[nH]c12 (configuration not stated) | 338 | 358 | 359 | 292 | 307 | 308 | 315 | 327 | 329
CC1=C(/C=C/C(C)=C/C=C/C(C)=C/C=C/C=C(C)/C=C/C=C(C)/C=C/C2=C(C)CCCC2(C)C)C(C)(C)CCC1 | 450 | 444 | 459 | 469 | 465 | 440 | 477 | 458 | 474
CC(=O)Oc1ccccc1C(=O)O | 461 | 450 | 452 | 466 | 450 | 450 | 463 | 466 | 469
CC(NC1=CC=CC=C1)C\2=C\C(=C/N3C(=O)\C=C(/N=C23)N4CCOCC4)C (configuration not stated) | 466 | 451 | 462 | 470 | 456 | 466 | 475 | 451 | 447
COc1cc2nc(N(C)CCCNC(=O)C3CCCO3)nc(N)c2cc1OC (configuration not stated) | 336 | 297 | 331 | 416 | 431 | 384 | 358 | 355 | 378
CCC1(C)CC(=O)NC1=O (configuration not stated) | 437 | 421 | 450 | 458 | 459 | 467 | 465 | 462 | 460
O=C(OC)[C@]12CC[C@@]3(C)[C@]4(C)CC[C@H]5[C@@](C)(C)C(=O)C(=C[C@]5(C)C4=CC(=O)[C@@H]3[C@@H]2C[C@](C)(C)CC1)C#N | 408 | 372 | 381 | 407 | 404 | 396 | 393 | 408 | 370
CN(C)c1ccc(O)c2c1C[C@H]1C[C@H]3[C@H](N(C)C)C(O)=C(C(N)=O)C(=O)[C@@]3(O)C(O)=C1C2=O | 475 | 474 | 409 | 468 | 452 | 420 | 448 | 467 | 475
CNC1CCC(N(Cc2cccc(-c3ccncc3)c2)C(=O)c2sc3ccccc3c2Cl)CC1 (configuration not stated) | 330 | 326 | 381 | 319 | 326 | 302 | 310 | 267 | 279
FC(F)(F)c1ccc(/C=C/c2nc(COc3ccc(CCCCn4ccnn4)cc3)co2)cc1 | 360 | 359 | 381 | 338 | 309 | 362 | 445 | 411 | 374
CC(C)C(C)/C=C/C(C)C1CCC2C3=CC=C4CC(O)CCC4(C)C3CCC21C (configuration not stated) | 474 | 426 | 445 | 460 | 468 | 457 | 383 | 454 | 458
Cc1cn2c(-c3cn[nH]c3)cnc2c(Nc2ccc(C(=O)N3CCNCC3)cc2F)n1 | 430 | 417 | 409 | 444 | 440 | 439 | 419 | 424 | 421
O=C(NCC[S+](=O)([O-])c1ccc(C(F)(F)F)cn1)c1ccc(Cl)cc1 | 457 | 461 | 463 | 470 | 455 | 452 | 448 | 450 | 446

Compound | AUC of viability dose-response curve (NOMO1; HPLM + 10% dialyzed FBS) | AUC of viability dose-response curve (NOMO1; RPMI 5 mM glucose + 10% FBS) | AUC of viability dose-response curve (NOMO1; [1]) | AUC of viability dose-response curve (P12-Ichikawa; HPLM + 10% dialyzed FBS) | AUC of viability dose-response curve (P12-Ichikawa; RPMI 5 mM glucose + 10% FBS) | AUC of viability dose-response curve (P12-Ichikawa; [1]) | AUC of viability dose-response curve (SEM cells; HPLM + 10% dialyzed FBS) | AUC of viability dose-response curve (SEM cells; RPMI 5 mM glucose + 10% FBS) | AUC of viability dose-response curve (SEM cells; [1])
C[C@H]1[C@H](NC(=O)/C(=N/OC(C)(C)C(=O)O)c2csc(N)n2)C(=O)N1[S+](=O)([O-])O | 455 | 475 | 445 | 470 | 471 | 467 | 468 | 471 | 450
CNC(=O)c1ccc(-c2cnc3ncc(Cc4ccc5ncccc5c4)n3n2)cc1F | 460 | 454 | 449 | 469 | 461 | 460 | 458 | 466 | 463
COC1CCC(CC1)N(C(=O)C2CCC(C)CC2)C3=C(SC(=C3)\C4=C\CCCC4)C(O)=O (configuration not stated) | 442 | 446 | 454 | 438 | 451 | 450 | 455 | 449 | 441
CC1(C)Cc2c(-c3ccccc3)c(-c3ccc(Cl)cc3)c(CC(=O)O)n2C1 | 454 | 454 | 458 | 444 | 451 | 466 | 451 | 425 | 407
COc1cnc(N[S+](=O)([O-])c2ccc(N)cc2)nc1 | 445 | 457 | 448 | 449 | 459 | 460 | 428 | 459 | 443
CCCCCOC(=O)NC\1=N\C(=O)N(\C=C1F)[C@@H]2O[C@H](C)[C@@H](O)[C@H]2O | 413 | 434 | 458 | 460 | 443 | 442 | 468 | 466 | 469
CC(C)(C)c1cc(NC(=O)Nc2ccc(-c3cn4c(n3)sc3cc(OCCN5CCOCC5)ccc34)cc2)no1 | 432 | 394 | 435 | 468 | 409 | 442 | 188 | 232 | 176
CC/C(=C(/c1ccc(O)cc1)c1ccc(OCCNC)cc1)c1ccccc1 | 443 | 459 | 452 | 432 | 414 | 405 | 410 | 412 | 405
CC\1=C(C(\N=C(/N1)C2=CC(=NC=C2)Cl)C3=C(F)C=C(Cl)C=C3)/C(=O)NC4=C(F)C=C5[NH]N=CC5=C4 (configuration not stated) | 459 | 443 | 457 | 440 | 439 | 441 | 408 | 405 | 423
CCc1cncnc1N1CCN(Cc2nc3cc(C(F)(F)F)ccc3[nH]2)CC1 | 462 | 425 | 426 | 445 | 437 | 451 | 429 | 425 | 426
COC1=CC=CC2=C1C(=NC(=N2)C3=CC=CS3)NN4C(=O)\C=C(C)/C4=O | 269 | 290 | 265 | 318 | 302 | 297 | 264 | 282 | 270
C=C(C)[C@@H]1CC[C@]2(C(=O)O)CC[C@]3(C)[C@H](CC[C@@H]4[C@@]5(C)CC[C@H](O)C(C)(C)[C@@H]5CC[C@]43C)[C@@H]12 | 452 | 473 | 466 | 445 | 461 | 427 | 420 | 410 | 397
CCCCCCCCCCCCCCCCCCCCCCO | 458 | 444 | 456 | 445 | 461 | 447 | 444 | 460 | 447
C/C=C(/C)C(=O)O[C@H]1C(C)=C2[C@H]([C@@H]1OC(=O)CCCCCCC)[C@@](C)(OC(C)=O)C[C@H](OC(=O)CCC)[C@@]1(O)[C@H]2OC(=O)[C@@]1(C)O | 206 | 224 | 211 | 364 | 297 | 257 | 211 | 183 | 174
OC1=C(O)C2=C(\C=C/C(=O)O2)C=C1 | 454 | 469 | 465 | 470 | 466 | 467 | 423 | 430 | 436
Cc1c(CCOc2ccc(C(=O)O)cc2)c2cc(Cl)ccc2n1C(c1ccccc1)c1ccccc1 | 457 | 442 | 443 | 442 | 468 | 459 | 470 | 450 | 451
